Calls of active or inactive are those of the source. The calls are words filed in the database; no cut-off is given here.
Assays:
RAW264.7 [1] = experiment: Cytotoxicity against mouse RAW264.7 cells assessed as decrease in cell viability at 1 uM; type: toxicity, cell-based; conditions: raw264.7, 1 µM
[2] = Inhibition of PGE2 production in LPS-induced mouse RAW264.7 cells; type: functional, cell-based
Mus musculus [3] = experiment: Neuroprotective effect in 6-OHDA-induced lesioned mouse model of Parkinson's disease assessed as decrease in time to turn at 80 mg/kg/day, po administered for 7 days measured by Pole test; type: functional, organism-based; conditions: time 7.0 day
Mus musculus [4] = experiment: Neuroprotective effect in 6-OHDA-induced lesioned mouse model of Parkinson's disease assessed as decrease in time for locomotion activity at 80 mg/kg/day, po administered for 7 days measured by Pole test; type: functional, organism-based; conditions: time 7.0 day
A549 = experiment: Inhibition of PGE2 production in IL-1beta-induced human A549 cells assessed as decrease in PGE2 production measured after 24 hrs by enzyme immunoassay; type: functional, cell-based; conditions: A549, 24 h
Mus musculus [5] = experiment: Neuroprotective activity against in 6-OHDA-induced neurotoxicity in mouse assessed as increase in tyrosine hydroxylase (TH)-positive neurons in substantia nigra pars compacta of brain at 1 mg/kg/day, ip administered for 7 days measured by immunohistochemistry analysis; type: functional, organism-based; conditions: time 7.0 day
Prostaglandin E synthase = biological target: T1, Prostaglandin E synthase (Homo sapiens, UniProt O14684); experiment: Inhibition of human mPGES-1 assessed as reduction in PGE2 production
T1 sequence (O14684 whole entry): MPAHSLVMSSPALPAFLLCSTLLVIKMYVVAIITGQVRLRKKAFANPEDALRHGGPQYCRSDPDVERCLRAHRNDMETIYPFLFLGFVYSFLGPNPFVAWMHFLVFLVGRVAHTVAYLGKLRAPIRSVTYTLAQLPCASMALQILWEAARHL

PC-12 [6] = experiment: Neuroprotective activity against 6-OHDA-induced cytotoxicity in rat PC-12 cells measured after 3 hrs by MTT assay; type: functional; conditions: read-out: ED50 (the source's name)
RAW264.7 [7] = experiment: Cytotoxicity against mouse RAW264.7 cells assessed as decrease in cell viability at 100 to 1000 nM; type: toxicity, cell-based; conditions: raw264.7, 1 µM, dose 100-1000 nM
Mus musculus [8] = experiment: Neuroprotective effect in 6-OHDA-induced lesioned mouse model of Parkinson's disease assessed as decrease in time to turn at 1 mg/kg/day, ip administered for 7 days measured by Pole test; type: functional, organism-based; conditions: time 7.0 day
Blood = experiment: Inhibition of PGE2 production in LPS-induced human whole blood; type: functional, tissue-based
Mus musculus [9] = experiment: Neuroprotective effect in 6-OHDA-induced lesioned mouse model of Parkinson's disease assessed as decrease in time for locomotion activity at 1 mg/kg/day, ip administered for 7 days measured by Pole test; type: functional, organism-based; conditions: time 7.0 day
Mus musculus [10] = experiment: Neuroprotective effect in 6-OHDA-induced lesioned mouse model of Parkinson's disease assessed as decrease in falling frequency at 1 mg/kg/day, ip administered for 7 days measured by rotarod test; type: functional, organism-based; conditions: time 7.0 day
Mus musculus [11] = experiment: Neuroprotective effect in 6-OHDA-induced lesioned mouse model of Parkinson's disease assessed as increase in latency time at 1 mg/kg/day, ip administered for 7 days measured by rotarod test; type: functional, organism-based; conditions: time 7.0 day
Mus musculus [12] = experiment: Neuroprotective activity against in 6-OHDA-induced neurotoxicity in mouse assessed as increase in tyrosine hydroxylase (TH)-positive fibers in striatum of brain at 1 mg/kg/day, ip administered for 7 days measured by immunohistochemistry analysis; type: functional, organism-based; conditions: time 7.0 day
PC-12 [13] = experiment: Neuroprotective activity against 6-OHDA-induced cytotoxicity in rat PC-12 cells at 10 uM measured after 12 hrs by MTT assay; type: functional, cell-based

Compound | IC50 [2] [nM] | Activity (RAW264.7 [1]) | also measured
Cc1cc(C)c(S(=O)(=O)N(Nc2ccccc2)C(=O)Oc2ccc(OCc3ccccc3)cc2)c(C)c1 |  | Non-Toxic | 
O=C(Oc1ccccc1)N(Nc1ccccc1)S(=O)(=O)c1ccc(F)cc1 |  | Non-Toxic | 
O=C(Oc1ccc(OCc2ccccc2)cc1)N(Nc1ccccc1)S(=O)(=O)c1ccc(-c2ccccc2)cc1 | 93 | Non-Toxic | 
N[C@@H](Cc1ccc(O)c(O)c1)C(=O)O |  |  | Activity (Mus musculus [3]): Active; Activity (Mus musculus [4]): Active
O=C(Oc1ccccc1)N(Nc1ccccc1)S(=O)(=O)c1ccc(Br)cc1 |  | Non-Toxic | 
CC(C)(C)c1ccc(S(=O)(=O)N(Nc2ccccc2)C(=O)Oc2ccc(OCc3ccccc3)cc2)cc1 |  | Non-Toxic | 
O=C(Oc1ccc(Oc2ccccc2)cc1)N(Nc1ccccc1)S(=O)(=O)c1ccc(-c2ccccc2)cc1 | 161 | Non-Toxic | 
O=C(Oc1ccc([N+](=O)[O-])cc1)N(Nc1ccc(Cl)cc1)S(=O)(=O)c1ccc(Cl)cc1 | 645 | Non-Toxic | 

More lines, main results first:

IC50 [2] [nM] | Compound | Activity (RAW264.7 [1]) | also measured
246 | O=C(Oc1cccc2c1CCC2)N(Nc1ccccc1)S(=O)(=O)c1ccc(C(F)(F)F)cc1 | Non-Toxic | 
759 | O=C(Oc1ccc([N+](=O)[O-])cc1)N(Nc1cccc(Cl)c1)S(=O)(=O)c1ccc(Cl)cc1 | Non-Toxic | 
59.1 | O=C(Oc1ccc(OCc2ccccc2)cc1)N(Nc1ccccc1)S(=O)(=O)c1ccc(Cl)cc1 | Non-Toxic | 
1000 | Cc1ccccc1NN(C(=O)Oc1ccccc1)S(=O)(=O)c1ccccc1 | Non-Toxic | 
398 | Cc1ccc(S(=O)(=O)N(Nc2ccccc2)C(=O)Oc2cccc3c2CCC3)cc1 | Non-Toxic | 
313 | Cc1cc(C)c(S(=O)(=O)N(Nc2ccccc2)C(=O)Oc2cccc3c2CCC3)c(C)c1 | Non-Toxic | 
41.8 | O=C(Oc1ccc(OCc2ccccc2)cc1)N(Nc1cccc(Cl)c1)S(=O)(=O)c1ccc(Cl)cc1 | Non-Toxic | IC50 (A549): 145 nM; Activity (Mus musculus [5]): Active; IC50 (Prostaglandin E synthase): 1.16 nM; EC50 (PC-12 [6]): 3 nM; Activity (RAW264.7 [7]): Non-Toxic; Activity (Mus musculus [8]): Active; IC50 (Blood): 428 nM; Activity (Mus musculus [9]): Active; Activity (Mus musculus [10]): Active; Activity (Mus musculus [11]): Active; Activity (Mus musculus [12]): Active; Activity (PC-12 [13]): Active
806 | Cc1cccc(NN(C(=O)Oc2ccc([N+](=O)[O-])cc2)S(=O)(=O)c2ccc(Cl)cc2)c1 | Non-Toxic | 
> 1000 | Cc1ccccc1NN(C(=O)Oc1ccccc1)S(=O)(=O)c1ccc(Cl)cc1 | Non-Toxic | 
47.1 | O=C(Oc1ccc(OCc2ccccc2)cc1)N(Nc1ccccc1)S(=O)(=O)c1ccc(C(F)(F)F)cc1 | Non-Toxic | 
434 | CCc1ccc(S(=O)(=O)N(Nc2ccccc2)C(=O)Oc2ccc(Oc3ccccc3)cc2)cc1 | Non-Toxic | 
177 | Cc1cc(C)c(S(=O)(=O)N(Nc2ccccc2)C(=O)Oc2ccc(Oc3ccccc3)cc2)c(C)c1 | Non-Toxic | 
429 | O=C(Oc1cccc2c1CCC2)N(Nc1ccccc1)S(=O)(=O)c1ccc(Cl)cc1 | Non-Toxic | 

Source: ChEMBL document CHEMBL5104160, “In vitro and in vivo neuroprotective effect of novel mPGES-1 inhibitor in animal model of Parkinson's disease” (Bioorg Med Chem Lett, 2022)
